# Measurements from ChEMBL document CHEMBL4219169, “Sulfoximines as potent RORγ inverse agonists” (Bioorg Med Chem Lett, 2018).
# Columns and labels:
# Mus musculus [1] = assay: (§1) In vivo inverse agonist activity at RORgamma in wild type BALB/c ByJ Rj mouse model of imiquimod-induced skin inflammation model assessed as attenuation of imiquimod-induced epidermal hyperplasia at 6% administered topically twice daily for 7 days dosed 2 hrs before and 6 hrs after imiquimod administration measured on day 8 by hematoxylin and eosin staining-based histological analysis; assay type: functional
# TK6 [2] = assay: Genotoxicity in human TK6 cells incubated for 27 hrs in absence of aroclor-1254-induced rat S9 fraction by Giemsa staining dependent optical microscopy based micronucleus test; assay type: toxicity, cell-based; details: tk6, 27 h
# [3] = Solubility of the compound in PG/EtOH96 (3/7) solution incubated for 24 hrs by UV spectrometry; assay type: physicochemical
# Mus musculus [4] = assay: as §1, with “hyperplasia at 0.5 to 6% administered” for “hyperplasia at 6% administered”; assay type: functional, organism-based
# Salmonella typhimurium [5] = assay: Genotoxicity in Salmonella typhimurium TA98 in presence of aroclor-1254-induced rat S9 fraction by Ames test; assay type: toxicity, organism-based; details: salmonella enterica subsp. enterica serovar typhimurium
# [6] = Phototoxicity against human neonatal keratinocytes assessed as cell viability preincubated for 30 mins before 5 J/cm2 UV light irradiation for 15 mins followed by treatment medium replacement with fresh culture medium after 24 hrs by neutral red dye-based assay; details: 0.25 h
# Mus musculus [7] = assay: as §1, with “1%” for “6%”; assay type: functional
# [8] = Intrinsic clearance in human hepatocytes assessed per million cells at 1 uM incubated for 5 to 90 mins by LC-MS/MS method; assay type: ADME, cell-based, Hepatocyte; details: read-out: CLH
# [9] = molecular target: T1, Nuclear receptor ROR-alpha (Homo sapiens, UniProt P35398); assay: Inverse agonist activity at RORalpha (unknown origin) expressed in human HeLa-derived HG5LN cells transfected with the GAL4 DNA-binding domain fused to the RORalpha ligand-binding domain assessed as inhibition of transcriptional activity after 18 hrs by luminescence-based luciferase reporter gene assay; assay type: cell-based
# T1 sequence (P35398 whole entry): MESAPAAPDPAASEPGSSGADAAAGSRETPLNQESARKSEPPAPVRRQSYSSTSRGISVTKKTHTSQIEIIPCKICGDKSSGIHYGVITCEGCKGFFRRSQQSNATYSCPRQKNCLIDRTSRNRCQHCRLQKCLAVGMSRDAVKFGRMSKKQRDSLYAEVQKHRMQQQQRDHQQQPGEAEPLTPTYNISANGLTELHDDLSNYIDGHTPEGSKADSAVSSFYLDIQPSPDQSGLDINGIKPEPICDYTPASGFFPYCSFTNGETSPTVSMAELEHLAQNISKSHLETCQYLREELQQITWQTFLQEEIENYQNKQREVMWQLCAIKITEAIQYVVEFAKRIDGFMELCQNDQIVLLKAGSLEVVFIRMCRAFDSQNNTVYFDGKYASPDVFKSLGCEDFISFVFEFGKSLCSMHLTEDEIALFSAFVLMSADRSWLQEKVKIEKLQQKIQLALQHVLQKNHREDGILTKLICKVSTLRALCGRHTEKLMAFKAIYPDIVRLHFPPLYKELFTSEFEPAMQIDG
# [10] = Fraction unbound in human plasma at 5 uM incubated for 4 hrs at 37 degC by LC-MS/MS method; assay type: ADME, cell-free
# Salmonella typhimurium [11] = assay: Genotoxicity in Salmonella typhimurium TA98 in absence of aroclor-1254-induced rat S9 fraction by Ames test; assay type: toxicity, organism-based; details: salmonella enterica subsp. enterica serovar typhimurium
# Mus musculus [12] = assay: as §1, with “3%” for “6%”; assay type: functional
# Vitamin D3 receptor = molecular target: T2, Vitamin D3 receptor (Homo sapiens, UniProt P11473)
# T2 sequence (P11473 whole entry): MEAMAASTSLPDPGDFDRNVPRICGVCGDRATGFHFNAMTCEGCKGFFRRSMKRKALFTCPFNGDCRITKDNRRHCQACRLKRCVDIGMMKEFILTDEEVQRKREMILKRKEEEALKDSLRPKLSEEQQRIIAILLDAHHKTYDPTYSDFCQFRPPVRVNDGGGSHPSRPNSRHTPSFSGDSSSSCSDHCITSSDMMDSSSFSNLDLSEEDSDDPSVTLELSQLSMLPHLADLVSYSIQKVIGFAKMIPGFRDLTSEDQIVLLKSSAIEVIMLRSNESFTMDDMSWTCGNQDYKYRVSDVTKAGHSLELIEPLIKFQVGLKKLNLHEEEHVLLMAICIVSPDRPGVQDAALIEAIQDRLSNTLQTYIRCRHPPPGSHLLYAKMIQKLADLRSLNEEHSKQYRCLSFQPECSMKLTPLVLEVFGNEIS
# Description: Activity at VDR expressed in human HeLa-derived HDLN6 cells assessed as inhibition of transcriptional activity after 18 hrs by luminescence-based luciferase reporter gene assay
# Mus musculus [13] = assay: as §1, with “0.5%” for “6%”; assay type: functional
# Salmonella typhimurium [14] = assay: Genotoxicity in Salmonella typhimurium TA100 in presence of aroclor-1254-induced rat S9 fraction by Ames test; assay type: toxicity, organism-based; details: salmonella enterica subsp. enterica serovar typhimurium
# TK6 [15] = assay: Genotoxicity in human-derived p53-competent TK6 cells expressing GADD45a-dependent green fluorescent protein assessed as decrease in cell viability after 48 hrs in absence of Sprague-Dawley rat S9 fraction by FACS analysis; assay type: toxicity, cell-based; details: tk6, 48 h
# [16] = Stability of the compound in PG/EtOH96 (3/7) solution at 40 degC after 1 month by HPLC analysis; assay type: physicochemical; details: read-out: Stability
# TK6 [17] = assay: Genotoxicity in human-derived p53-competent TK6 cells expressing GADD45a-dependent green fluorescent protein assessed as decrease in cell viability after 48 hrs in presence of Sprague-Dawley rat S9 fraction by FACS analysis; assay type: toxicity, cell-based; details: s9, 48 h
# TK6 [18] = assay: Genotoxicity in human TK6 cells incubated for 3 hrs in absence of aroclor-1254-induced rat S9 fraction followed by 27 hrs recovery period by Giemsa staining dependent optical microscopy based micronucleus test; assay type: toxicity, cell-based; details: tk6, 3 h
# [19] = molecular target: T3, Oxysterols receptor LXR-beta (Homo sapiens, UniProt P55055)
# T3 sequence (P55055 whole entry): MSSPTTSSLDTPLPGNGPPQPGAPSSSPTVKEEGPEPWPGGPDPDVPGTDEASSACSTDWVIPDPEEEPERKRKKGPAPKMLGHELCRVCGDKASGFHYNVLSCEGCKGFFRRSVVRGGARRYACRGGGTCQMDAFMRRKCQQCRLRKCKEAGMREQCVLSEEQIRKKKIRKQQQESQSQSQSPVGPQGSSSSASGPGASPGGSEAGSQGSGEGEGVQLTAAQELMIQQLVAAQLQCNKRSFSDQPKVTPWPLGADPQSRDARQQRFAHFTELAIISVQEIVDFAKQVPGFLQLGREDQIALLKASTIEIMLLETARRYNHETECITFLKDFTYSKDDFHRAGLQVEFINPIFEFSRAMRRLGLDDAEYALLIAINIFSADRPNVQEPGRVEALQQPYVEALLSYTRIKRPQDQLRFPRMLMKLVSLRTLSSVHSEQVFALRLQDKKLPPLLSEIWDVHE
# Description: Activity at LXRbeta (unknown origin) expressed in human HeLa-derived HG5LN cells transfected with the GAL4 DNA-binding domain fused to the LXRbeta ligand-binding domain assessed as inhibition of transcriptional activity after 18 hrs by luminescence-based luciferase reporter gene assay
# TK6 [20] = assay: Genotoxicity in human TK6 cells incubated for 3 hrs in presence of aroclor-1254-induced rat S9 fraction followed by 27 hrs recovery period by Giemsa staining dependent optical microscopy based micronucleus test; assay type: toxicity, cell-based; details: s9, 3 h
smiles,measurement,setting,value
CCc1ccc(N(CC(C)C)S(=O)(=O)c2ccc(OCC3CCOCC3)c([S@@](C)(=N)=O)c2)cc1,Activity,Mus musculus [1],63%
same,Activity,TK6 [2],Non-Toxic
same,solubility at 24 h,[3],31 mM
same,Activity,Mus musculus [4],Dose-dependent effect
same,Activity,Salmonella typhimurium [5],Non-Toxic
same,Activity,[6],Non-Toxic
same,Activity,Mus musculus [7],35%
same,hepatocyte CLint at 1 µM,[8],180 µL/min/1e6 cells
same,IC50,[9],> 10 µM
same,"fraction unbound at 4 h, 5 µM",[10],0.048
same,Activity,Salmonella typhimurium [11],Non-Toxic
same,Activity,Mus musculus [12],46%
same,Kd,Vitamin D3 receptor,> 10 µM
same,Activity,Mus musculus [13],29%
same,Activity,Salmonella typhimurium [14],Non-Toxic
same,Activity,TK6 [15],Non-Toxic
same,remaining at 730.5 h,[16],> 98%
same,Activity,TK6 [17],Non-Toxic
same,Activity,TK6 [18],Non-Toxic
same,Kd,[19],> 10 µM
same,Activity,TK6 [20],Non-Toxic
